In ChEMBL document CHEMBL5723584 (2023):

Experiments:
Details in all cases: Compound concentration 1.0 uM
[1] = target: Serine/threonine-protein kinase A-Raf (Homo sapiens) (UniProt P10398); experiment: activity of A-Raf(h) at 1.0 µM in the Eurofins Kinase panel
[2] = target: Serine/threonine-protein kinase SIK1 (Homo sapiens) (UniProt P57059); experiment: activity of SIK(h) at 1.0 µM in the Eurofins Kinase panel
[3] = target: Tyrosine-protein kinase Fes/Fps (Homo sapiens) (UniProt P07332); experiment: activity of Fes(h) at 1.0 µM in the Eurofins Kinase panel
[4] = target: Serine/threonine-protein kinase 3 (Homo sapiens) (UniProt Q13188); experiment: activity of MST2(h) at 1.0 µM in the Eurofins Kinase panel
[5] = target: Serine/threonine-protein kinase Nek2 (Homo sapiens) (UniProt P51955); experiment: activity of NEK2(h) at 1.0 µM in the Eurofins Kinase panel
[6] = target: Serine/threonine-protein kinase D1 (Homo sapiens) (UniProt Q15139); experiment: activity of PKCmu(h) at 1.0 µM in the Eurofins Kinase panel
[7] = target: Serine/threonine-protein kinase 24 (Homo sapiens) (UniProt Q9Y6E0); experiment: activity of MST3(h) at 1.0 µM in the Eurofins Kinase panel
[8] = target: Dual specificity protein kinase CLK2 (Homo sapiens) (UniProt P49760); experiment: activity of CLK2(h) at 1.0 µM in the Eurofins Kinase panel
[9] = target: Serine/threonine-protein kinase Nek9 (Homo sapiens) (UniProt Q8TD19); experiment: activity of NEK9(h) at 1.0 µM in the Eurofins Kinase panel
[10] = target: Serine/threonine-protein kinase 17A (Homo sapiens) (UniProt Q9UEE5); experiment: activity of DRAK1(h) at 1.0 µM in the Eurofins Kinase panel
[11] = target: Proto-oncogene tyrosine-protein kinase Src (Homo sapiens) (UniProt P12931); experiment: activity of cSRC(h) at 1.0 µM in the Eurofins Kinase panel
[12] = target: Dual specificity mitogen-activated protein kinase kinase 1 (Homo sapiens) (UniProt Q02750); experiment: activity of MEK1(h) at 1.0 µM in the Eurofins Kinase panel
[13] = target: Serine/threonine-protein kinase pim-2 (Homo sapiens) (UniProt Q9P1W9); experiment: activity of Pim-2(h) at 1.0 µM in the Eurofins Kinase panel
[14] = target: Fibroblast growth factor receptor 3 (Homo sapiens) (UniProt P22607); experiment: activity of FGFR3(h) at 1.0 µM in the Eurofins Kinase panel
[15] = target: Mitogen-activated protein kinase kinase kinase 3 (Homo sapiens) (UniProt Q99759); experiment: activity of MEKK3(h) at 1.0 µM in the Eurofins Kinase panel
[16] = target: T1, Cyclin-dependent kinase 5/CDK5 activator 1 (Homo sapiens) (UniProt Q00535+Q15078); experiment: activity of CDK5/p25(h) at 1.0 µM in the Eurofins Kinase panel; type: protein-complex assay
[17] = target: Cytoplasmic tyrosine-protein kinase BMX (Homo sapiens) (UniProt P51813); experiment: activity of Bmx(h) at 1.0 µM in the Eurofins Kinase panel
[18] = target: Mitogen-activated protein kinase kinase kinase 2 (Homo sapiens) (UniProt Q9Y2U5); experiment: activity of MEKK2(h) at 1.0 µM in the Eurofins Kinase panel
[19] = target: STE20/SPS1-related proline-alanine-rich protein kinase (Homo sapiens) (UniProt Q9UEW8); experiment: activity of STK39(h) at 1.0 µM in the Eurofins Kinase panel
[20] = target: Ribosomal protein S6 kinase beta-1 (Homo sapiens) (UniProt P23443); experiment: activity of p70S6K(h) at 1.0 µM in the Eurofins Kinase panel
[21] = target: Phosphatidylinositol 4-phosphate 5-kinase type-1 alpha (Homo sapiens) (UniProt Q99755); experiment: activity of PIP5K1alpha(h) at 1.0 µM in the Eurofins Kinase panel
[22] = target: Casein kinase I isoform gamma-2 (Homo sapiens) (UniProt P78368); experiment: activity of CK1gamma2(h) at 1.0 µM in the Eurofins Kinase panel
[23] = target: Tyrosine-protein kinase Fgr (Homo sapiens) (UniProt P09769); experiment: activity of Fgr(h) at 1.0 µM in the Eurofins Kinase panel
[24] = target: T1, Cyclin-dependent kinase 5/CDK5 activator 1 (Homo sapiens); experiment: activity of CDK5/p35(h) at 1.0 µM in the Eurofins Kinase panel; type: protein-complex assay
[25] = target: Death-associated protein kinase 2 (Homo sapiens) (UniProt Q9UIK4); experiment: activity of DAPK2(h) at 1.0 µM in the Eurofins Kinase panel
[26] = target: Serine/threonine-protein kinase pim-1 (Homo sapiens) (UniProt P11309); experiment: activity of Pim-1(h) at 1.0 µM in the Eurofins Kinase panel
[27] = target: Macrophage colony-stimulating factor 1 receptor (Homo sapiens) (UniProt P07333); experiment: activity of Fms(h) at 1.0 µM in the Eurofins Kinase panel
[28] = target: Serine/threonine-protein kinase PRP4 homolog (Homo sapiens) (UniProt Q13523); experiment: activity of PRP4(h) at 1.0 µM in the Eurofins Kinase panel
[29] = target: Bone morphogenetic protein receptor type-1B (Homo sapiens) (UniProt O00238); experiment: activity of ALK6(h) at 1.0 µM in the Eurofins Kinase panel
[30] = target: Serine/threonine-protein kinase DCLK2 (Homo sapiens) (UniProt Q8N568); experiment: activity of DCAMKL2(h) at 1.0 µM in the Eurofins Kinase panel
[31] = target: Ephrin type-B receptor 4 (Homo sapiens) (UniProt P54760); experiment: activity of EphB4(h) at 1.0 µM in the Eurofins Kinase panel
[32] = target: eIF-2-alpha kinase GCN2 (Homo sapiens) (UniProt Q9P2K8); experiment: activity of GCN2(h) at 1.0 µM in the Eurofins Kinase panel
[33] = target: Tyrosine-protein kinase JAK1 (Homo sapiens) (UniProt P23458); experiment: activity of JAK1(h) at 1.0 µM in the Eurofins Kinase panel
[34] = target: Cyclin-dependent kinase-like 1 (Homo sapiens) (UniProt Q00532); experiment: activity of CDKL1(h) at 1.0 µM in the Eurofins Kinase panel
[35] = target: Dual specificity tyrosine-phosphorylation-regulated kinase 1B (Homo sapiens) (UniProt Q9Y463); experiment: activity of DYRK1B(h) at 1.0 µM in the Eurofins Kinase panel
[36] = target: Cyclin-dependent kinase-like 3 (Homo sapiens) (UniProt Q8IVW4); experiment: activity of CDKL3(h) at 1.0 µM in the Eurofins Kinase panel
[37] = target: Tyrosine-protein kinase SYK (Homo sapiens) (UniProt P43405); experiment: activity of Syk(h) at 1.0 µM in the Eurofins Kinase panel
[38] = target: Death-associated protein kinase 3 (Homo sapiens) (UniProt O43293); experiment: activity of ZIPK(h) at 1.0 µM in the Eurofins Kinase panel
[39] = target: Calcium/calmodulin-dependent protein kinase type IV (Homo sapiens) (UniProt Q16566); experiment: activity of CaMKIV(h) at 1.0 µM in the Eurofins Kinase panel

T1 sequence (Q00535 whole entry): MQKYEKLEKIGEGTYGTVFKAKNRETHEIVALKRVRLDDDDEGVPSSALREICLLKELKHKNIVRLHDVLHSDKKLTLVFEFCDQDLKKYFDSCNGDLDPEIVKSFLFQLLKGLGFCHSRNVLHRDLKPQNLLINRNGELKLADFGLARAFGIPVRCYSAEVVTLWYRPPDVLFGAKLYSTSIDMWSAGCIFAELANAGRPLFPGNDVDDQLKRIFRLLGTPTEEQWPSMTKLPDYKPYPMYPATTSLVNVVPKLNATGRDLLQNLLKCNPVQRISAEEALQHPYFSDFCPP
T1 sequence (Q15078 99-307 partner limits assumed): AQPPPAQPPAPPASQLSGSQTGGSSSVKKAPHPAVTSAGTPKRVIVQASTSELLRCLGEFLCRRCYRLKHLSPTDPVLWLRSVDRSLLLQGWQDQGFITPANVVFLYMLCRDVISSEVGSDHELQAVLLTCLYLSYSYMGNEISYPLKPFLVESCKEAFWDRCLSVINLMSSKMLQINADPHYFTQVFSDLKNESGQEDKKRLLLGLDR
eIF-2-alpha kinase GCN2 (Homo sapiens), sequence (Q9P2K8 whole entry): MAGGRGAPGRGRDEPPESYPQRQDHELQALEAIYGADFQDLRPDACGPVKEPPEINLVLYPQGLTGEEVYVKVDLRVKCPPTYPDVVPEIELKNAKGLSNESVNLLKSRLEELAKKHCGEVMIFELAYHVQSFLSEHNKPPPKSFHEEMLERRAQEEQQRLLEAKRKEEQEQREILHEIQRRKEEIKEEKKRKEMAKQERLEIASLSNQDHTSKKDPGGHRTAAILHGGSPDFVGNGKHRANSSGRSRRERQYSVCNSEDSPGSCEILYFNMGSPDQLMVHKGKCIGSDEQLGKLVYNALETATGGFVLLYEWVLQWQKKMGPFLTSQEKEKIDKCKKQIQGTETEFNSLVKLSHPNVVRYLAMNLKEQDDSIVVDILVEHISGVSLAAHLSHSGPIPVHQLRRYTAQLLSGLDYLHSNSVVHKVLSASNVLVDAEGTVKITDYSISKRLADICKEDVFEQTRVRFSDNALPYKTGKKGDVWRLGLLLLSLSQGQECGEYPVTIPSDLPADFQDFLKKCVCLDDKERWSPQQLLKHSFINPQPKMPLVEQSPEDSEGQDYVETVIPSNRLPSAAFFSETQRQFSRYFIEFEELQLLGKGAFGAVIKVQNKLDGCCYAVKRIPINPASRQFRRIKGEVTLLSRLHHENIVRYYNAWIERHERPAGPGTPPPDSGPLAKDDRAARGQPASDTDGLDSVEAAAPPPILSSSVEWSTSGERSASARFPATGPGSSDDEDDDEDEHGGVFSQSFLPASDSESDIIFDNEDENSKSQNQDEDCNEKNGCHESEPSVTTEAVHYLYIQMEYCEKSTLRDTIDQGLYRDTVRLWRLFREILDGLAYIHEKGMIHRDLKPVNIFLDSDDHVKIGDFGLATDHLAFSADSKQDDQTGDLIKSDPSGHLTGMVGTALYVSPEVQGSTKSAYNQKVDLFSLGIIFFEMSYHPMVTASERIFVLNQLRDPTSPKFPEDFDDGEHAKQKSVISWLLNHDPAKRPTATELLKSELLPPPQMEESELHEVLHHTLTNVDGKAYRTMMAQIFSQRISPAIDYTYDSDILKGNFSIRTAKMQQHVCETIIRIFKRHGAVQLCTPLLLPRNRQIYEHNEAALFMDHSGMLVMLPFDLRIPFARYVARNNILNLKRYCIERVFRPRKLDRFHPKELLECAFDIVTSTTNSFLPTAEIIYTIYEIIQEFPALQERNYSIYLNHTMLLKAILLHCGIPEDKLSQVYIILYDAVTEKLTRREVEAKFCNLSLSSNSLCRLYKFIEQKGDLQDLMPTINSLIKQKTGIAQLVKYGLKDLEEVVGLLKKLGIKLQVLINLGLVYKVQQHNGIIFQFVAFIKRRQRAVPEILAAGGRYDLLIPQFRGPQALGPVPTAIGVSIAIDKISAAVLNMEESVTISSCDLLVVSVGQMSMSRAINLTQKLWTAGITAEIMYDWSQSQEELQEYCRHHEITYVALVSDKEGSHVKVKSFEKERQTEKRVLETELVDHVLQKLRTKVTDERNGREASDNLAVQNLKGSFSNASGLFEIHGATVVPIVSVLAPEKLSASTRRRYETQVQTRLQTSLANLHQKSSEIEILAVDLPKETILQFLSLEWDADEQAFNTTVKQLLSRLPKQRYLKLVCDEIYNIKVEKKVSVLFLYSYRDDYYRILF
Macrophage colony-stimulating factor 1 receptor (Homo sapiens), sequence (P07333 whole entry): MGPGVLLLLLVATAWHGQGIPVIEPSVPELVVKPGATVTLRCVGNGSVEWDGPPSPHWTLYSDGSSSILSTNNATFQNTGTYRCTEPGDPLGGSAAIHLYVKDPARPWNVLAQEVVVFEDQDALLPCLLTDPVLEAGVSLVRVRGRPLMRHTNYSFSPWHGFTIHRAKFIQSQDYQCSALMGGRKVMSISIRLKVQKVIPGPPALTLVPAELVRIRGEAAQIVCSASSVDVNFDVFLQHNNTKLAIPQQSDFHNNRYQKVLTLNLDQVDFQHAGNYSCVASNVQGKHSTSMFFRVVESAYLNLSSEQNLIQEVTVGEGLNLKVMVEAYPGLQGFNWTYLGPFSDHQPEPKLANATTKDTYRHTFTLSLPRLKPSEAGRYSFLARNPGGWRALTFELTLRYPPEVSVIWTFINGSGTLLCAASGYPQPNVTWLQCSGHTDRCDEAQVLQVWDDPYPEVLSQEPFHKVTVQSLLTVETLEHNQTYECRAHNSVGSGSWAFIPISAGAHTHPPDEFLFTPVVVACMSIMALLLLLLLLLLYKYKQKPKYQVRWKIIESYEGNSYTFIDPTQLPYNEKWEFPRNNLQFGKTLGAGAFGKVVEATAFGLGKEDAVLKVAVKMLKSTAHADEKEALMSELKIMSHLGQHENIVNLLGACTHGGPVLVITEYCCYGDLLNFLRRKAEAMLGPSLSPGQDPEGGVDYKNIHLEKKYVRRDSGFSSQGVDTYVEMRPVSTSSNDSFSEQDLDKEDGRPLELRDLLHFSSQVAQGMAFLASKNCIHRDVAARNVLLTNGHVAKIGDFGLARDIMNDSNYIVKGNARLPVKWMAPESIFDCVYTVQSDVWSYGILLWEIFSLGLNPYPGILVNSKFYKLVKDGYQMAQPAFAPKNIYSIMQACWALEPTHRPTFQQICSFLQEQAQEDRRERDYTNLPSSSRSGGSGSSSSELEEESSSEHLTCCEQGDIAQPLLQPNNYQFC
Cyclin-dependent kinase-like 1 (Homo sapiens), sequence (Q00532 whole entry): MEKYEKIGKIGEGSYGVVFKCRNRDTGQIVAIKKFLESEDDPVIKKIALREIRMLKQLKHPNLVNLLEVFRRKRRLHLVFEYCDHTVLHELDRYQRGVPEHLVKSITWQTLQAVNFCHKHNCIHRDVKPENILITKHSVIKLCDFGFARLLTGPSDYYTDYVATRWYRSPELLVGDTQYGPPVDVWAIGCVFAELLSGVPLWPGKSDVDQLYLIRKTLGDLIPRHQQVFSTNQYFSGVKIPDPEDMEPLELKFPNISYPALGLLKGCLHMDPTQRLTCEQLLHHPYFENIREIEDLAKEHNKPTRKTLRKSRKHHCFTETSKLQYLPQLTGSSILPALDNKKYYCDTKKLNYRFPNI
Serine/threonine-protein kinase DCLK2 (Homo sapiens), sequence (Q8N568 whole entry): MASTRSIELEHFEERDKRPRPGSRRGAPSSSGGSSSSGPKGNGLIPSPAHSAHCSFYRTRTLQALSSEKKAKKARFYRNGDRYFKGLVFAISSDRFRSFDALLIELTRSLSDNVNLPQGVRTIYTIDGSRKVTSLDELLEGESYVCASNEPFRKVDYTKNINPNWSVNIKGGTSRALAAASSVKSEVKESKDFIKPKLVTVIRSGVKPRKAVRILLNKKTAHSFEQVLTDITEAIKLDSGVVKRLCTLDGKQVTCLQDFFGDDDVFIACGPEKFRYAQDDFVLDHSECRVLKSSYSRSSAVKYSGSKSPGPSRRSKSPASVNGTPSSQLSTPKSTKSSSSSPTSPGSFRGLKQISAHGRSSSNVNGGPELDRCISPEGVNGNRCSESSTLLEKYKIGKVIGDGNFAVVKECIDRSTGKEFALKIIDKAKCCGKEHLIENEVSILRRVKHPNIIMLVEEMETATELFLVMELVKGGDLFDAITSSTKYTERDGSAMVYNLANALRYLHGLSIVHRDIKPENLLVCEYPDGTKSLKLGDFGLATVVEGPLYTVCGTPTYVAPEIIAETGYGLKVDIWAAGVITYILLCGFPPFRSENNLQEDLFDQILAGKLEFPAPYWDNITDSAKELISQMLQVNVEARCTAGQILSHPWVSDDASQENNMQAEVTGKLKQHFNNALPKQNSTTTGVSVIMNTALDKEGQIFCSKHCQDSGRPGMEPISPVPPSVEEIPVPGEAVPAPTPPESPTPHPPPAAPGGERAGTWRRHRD
Phosphatidylinositol 4-phosphate 5-kinase type-1 alpha (Homo sapiens), sequence (Q99755 whole entry, canonical isoform): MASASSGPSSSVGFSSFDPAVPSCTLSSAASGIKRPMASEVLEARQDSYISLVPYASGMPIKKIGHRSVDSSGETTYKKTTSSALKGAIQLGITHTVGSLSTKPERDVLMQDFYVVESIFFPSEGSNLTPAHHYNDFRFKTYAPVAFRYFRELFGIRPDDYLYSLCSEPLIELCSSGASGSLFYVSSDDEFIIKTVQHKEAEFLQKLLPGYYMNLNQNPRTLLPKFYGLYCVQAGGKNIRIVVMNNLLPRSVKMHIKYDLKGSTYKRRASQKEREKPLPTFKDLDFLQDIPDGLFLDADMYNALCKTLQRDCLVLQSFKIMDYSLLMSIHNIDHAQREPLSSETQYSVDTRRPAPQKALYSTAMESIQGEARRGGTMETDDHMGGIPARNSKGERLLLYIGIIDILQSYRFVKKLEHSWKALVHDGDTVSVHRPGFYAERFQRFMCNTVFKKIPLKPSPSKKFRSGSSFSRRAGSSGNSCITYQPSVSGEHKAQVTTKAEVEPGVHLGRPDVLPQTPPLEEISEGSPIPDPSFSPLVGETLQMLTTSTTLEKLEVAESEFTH

Cc1cc2c(-c3ccc(NC(=O)[C@H](N)CC(C)(C)C)cc3C)ccnc2[nH]1 gave an activity [1] of 97%, an activity [2] of 105% and an activity [3] of 111%. The activity [4] was 106%, the activity [5] was 118% and the activity [6] was 109%. For the same compound, the activity [7] was 85%, the activity [8] was 106% and the activity [9] was 79%. For the same compound, the activity [10] was 80%, the activity [11] was 93% and the activity [12] was 101%. For the same compound, the activity [13] was 117%, the activity [14] was 86% and the activity [15] was 107%. The activity [16] was 72%, the activity [17] was 97% and the activity [18] was 122%. The activity [19] was 102%, the activity [20] was 93% and the activity [21] was 103%. For the same compound, the activity [22] was 97%, the activity [23] was 97% and the activity [24] was 79%. The activity [25] was 109%, the activity [26] was 95% and the activity [27] was 115%. It also gave an activity [28] of 100%, an activity [29] of 74% and an activity [30] of 104%. It also gave an activity [31] of 107%, an activity [32] of 101% and an activity [33] of 85%. It also gave an activity [34] of 99%, an activity [35] of 108% and an activity [36] of 79%. For the same compound, the activity [37] was 66%, the activity [38] was 94% and the activity [39] was 99%.
